Measured values from paper PMC5641405 (Organic letters, 2017).

How the values were obtained:
[1] = target: N-methyl-D-aspartate (NMDA) receptor, MK-801 binding site; assay: radioligand displacement of [3H]-MK801; conditions: read-out: Ki (μM) ^a; MK-801 channel site
[2] = target: N-methyl-D-aspartate (NMDA) receptor, MK-801 binding site; assay: radioligand displacement of [3H]-MK801; conditions: read-out: IC50 (μM) ^a; MK-801 channel site

Molecule | Ki [1] [µM] | IC50 [2] [µM]
N[C@]1(c2ccccc2Cl)C[C@@H](O)CCC1=O [11b, (2S,4S)-HNK] | > 100 | > 100
N[C@@]1(c2ccccc2Cl)C[C@@H](O)CCC1=O [10a, (2R,4S)-HNK] | > 100 | > 100
N[C@]1(c2ccccc2Cl)C[C@H](O)CCC1=O [10b, (2S,4R)-HNK] | > 100 | > 100
N[C@]1(c2ccccc2Cl)CC[C@H](O)CC1=O [8b, (2S,5S)-HNK] | > 100 | > 100
N[C@@]1(c2ccccc2Cl)CC[C@@H](O)CC1=O [8a, (2R,5R)-HNK] | > 100 | > 100
N[C@]1(c2ccccc2Cl)CCC=CC1=O [3b, (S)-DHNK] | 29.7 | 42
N[C@]1(c2ccccc2Cl)CC[C@@H](O)CC1=O [9b, (2S,5R)-HNK] | > 100 | > 100
N[C@]1(c2ccccc2Cl)CCC[C@H](O)C1=O [7b, (2S,6S)-HNK] | 7.34 | 10.4
CNC1(c2ccccc2Cl)CCCCC1=O (racemic) [compound 1, (R,S)-ketamine] | 0.25 | 0.35
N[C@@]1(c2ccccc2Cl)CCC[C@@H](O)C1=O [7a, (2R,6R)-HNK] | > 100 | > 100
N[C@@]1(c2ccccc2Cl)CCC=CC1=O [3a, (R)-DHNK] | 42.1 | 59.7
(+)-MK-801 [reference compound] | 0.00348 | 0.00493
N[C@]1(c2ccccc2Cl)CCC[C@@H](O)C1=O [4b, (2S,6R)-HNK] | > 100 | > 100
N[C@@]1(c2ccccc2Cl)CCC[C@H](O)C1=O [4a, (2R,6S)-HNK] | > 100 | > 100
N[C@@]1(c2ccccc2Cl)CC[C@H](O)CC1=O [9a, (2R,5S)-HNK] | > 100 | > 100
N[C@@]1(c2ccccc2Cl)C[C@H](O)CCC1=O [11a, (2R,4R)-HNK] | > 100 | > 100
